Earlier results in patent publication US20260271921A1, “DILUTION-INDUCED RELEASE COMPOSITIONS AND METHODS OF USE THEREOF” (priority 2025, published 2026).

logP: 3.65
SMILES: CCN(CC)c1ccc2nc3c4ccccc4c(=O)cc-3oc2c1 [Nile Red]
